The text below walks through data of publication PMC8699718, “A structurally conserved site in AUP1 binds the E2 enzyme UBE2G2 and is essential for ER-associated degradation” (PLoS Biology, 2021).

This assay relates to UBE2G2. The assay is described as follows: CHX chase: UBE2G2 turnover in HT1080 AUP1 KO cells. To be noted: GFP fusion transfected with MYC-UBE2G2, HT1080 AUP1 KO, compared with GFP-SCR. Format: cell-based, human. How it is done: Fig 7 G2BR^AUP1 protects UBE2G2 from degradation. (A) Indicated cells were assessed for steady state levels and turnover of endogenous UBE2G2 by CHX chase. (B) Transcript levels of endogenous UBE2G2 in AUP1 KO cells compared to HT1080 as determined by qPCR. Mean and standard deviation from three independent experiments is shown. […] (D) AUP1 KO cells were transfected with plasmids encoding MYC-UBE2G2 and GFP fusions of either a scrambled G2BR (SCR), G2BR^gp78, or G2BR^AUP1, and the turnover of UBE2G2 was assessed. (E) Relative abundance of gp78 (left panel) and AUP1 (right panel) in HT1080 cells was determined by resolving indicated amounts (in pmoles) of purified GST-gp78 (aa 429 to 611) or GST-AUP1 (aa 61 to 410) fusions alongside approximately 1 × 10^4 cellular equivalents of cell lysate and immunoblotting with gp78 or AUP1 antibodies. For each antibody, the amount of immunoreactivity in the lysate was compared to a defined quantity of a GST fusion protein of gp78 or AUP1 spanning the epitope recognized by the probing antibody. […] The data underlying this figure can be found in S1 and S8 Data. aa, amino acid; AUP1, ancient ubiquitous protein 1; CHX, cycloheximide; G2BR, UBE2G2 Binding Region; KO, knockout; qPCR, quantitative polymerase chain reaction; WT, wild type. […]

Ends that are not written are not given here.

As to “GFP-G2BR^AUP1: GFP fusion of AUP1 aa 378 to 404 (SSWARQESLQERKQALYEYARRRFTER; also: GFP fusion; UniProt Q9Y679 378-404, looked up, fragment)”, the “UBE2G2 degradation and steady state level” value was “protected UBE2G2 from degradation and increased the steady state level of this E2”.
